Data: patent publication US20060258632A1, “Methods and agents for treating cardiovascular diseases” (Fraunhofer-Gesellschaft zur Forderung der angewandten …, priority 2002, published 2006)

Legend:
[1] = test system: 5-alpha steroid reductase; experiment: Testosterone metabolism in human and rat heart microsomal suspensions (HPLC of metabolites); format: biochemical; details: FIG. 3
[2] = test system: androgen receptor expression; experiment: Androgen receptor expression in cultivated rat heart muscle cells (real-time RT-PCR); format: cell-based; details: testosterone added to culture medium (100 μM); isolated rat heart muscle cells; FIG. 5c
Description: (§1) Total RNA was isolated from heart tissue using the Total RNA Isolation Kit (Macherey-Nagel, Germany) according to the manufacturer's instructions. The quality of the isolated RNA was assessed by evaluating the ribosomal bands on agarose gel (1%). Of each sample, 2 μg RNA was used for reverse transcription. RNA and random primer (Roche Diagnostics, Mannheim, Germany) were preheated at 70° C. for 10 min. and subsequently incubated with 5×RT-AMV buffer (Roche Diagnostics, Mannheim, Germany), dNTPs (1 mM; Roche Diagnostics, Mannheim, Germany), 40U RNAse inhibitor (Stratagene, Amsterdam, Netherlands) and 20U AMV-RT (Promega, Mannheim, Germany) at a total volume of 20 μl for 60 min. at 42° C. […]
(§2) The studies were conducted With a lightcyler (Roche Diagnostics, Mannheim, Germany). […] By the end of each extension phase, fluorescence was measured to be used for evaluation. To guarantee that no unspecific primer dimers are measured, fluorescence detection was conducted above the temperature characteristic of primer dimers (as assessed in preliminary studies). Amplification was followed by a melting curve analysis, measuring fluorescence by slowly increasing the temperature of the DNA synthesis products from 65° C. to 95° C. […] The exact amount of the obtained PCR product was determined by co-amplification of standardized cardiac cDNA and according to the manufacturer's instructions. […]

alpha-MHC expression = details: testosterone substitution (100 μM, 8 h); rat heart muscle cells; FIGS. 7 and 8
Description: as §1, §2

SMILES	5-alpha-DHT production decreased ([1]; finasteride 25 μM, heart microsomes, 100 μM testosterone, 4 h at 37° C.) [%]	production of dihydrotestosterone in the heart tissue ([1]; inhibition of 5-alpha reductase)	androgen receptor expression [2]	alpha-MHC expression (alpha-MHC expression)
CC(C)(C)NC(=O)[C@H]1CC[C@H]2[C@@H]3CC[C@H]4NC(=O)C=C[C@]4(C)[C@H]3CC[C@]12C [finasteride]	60	reduced and normalized	–	–
C[C@]12CC[C@H]3[C@@H](CCC4=CC(=O)CC[C@@]43C)[C@@H]1CC[C@@H]2O [testosterone]	–	–	reduces and normalizes	normalization
